The target in data set [1] is T1, Dopamine beta-hydroxylase (Bos taurus) (UniProt P15101).
T1 sequence (whole entry): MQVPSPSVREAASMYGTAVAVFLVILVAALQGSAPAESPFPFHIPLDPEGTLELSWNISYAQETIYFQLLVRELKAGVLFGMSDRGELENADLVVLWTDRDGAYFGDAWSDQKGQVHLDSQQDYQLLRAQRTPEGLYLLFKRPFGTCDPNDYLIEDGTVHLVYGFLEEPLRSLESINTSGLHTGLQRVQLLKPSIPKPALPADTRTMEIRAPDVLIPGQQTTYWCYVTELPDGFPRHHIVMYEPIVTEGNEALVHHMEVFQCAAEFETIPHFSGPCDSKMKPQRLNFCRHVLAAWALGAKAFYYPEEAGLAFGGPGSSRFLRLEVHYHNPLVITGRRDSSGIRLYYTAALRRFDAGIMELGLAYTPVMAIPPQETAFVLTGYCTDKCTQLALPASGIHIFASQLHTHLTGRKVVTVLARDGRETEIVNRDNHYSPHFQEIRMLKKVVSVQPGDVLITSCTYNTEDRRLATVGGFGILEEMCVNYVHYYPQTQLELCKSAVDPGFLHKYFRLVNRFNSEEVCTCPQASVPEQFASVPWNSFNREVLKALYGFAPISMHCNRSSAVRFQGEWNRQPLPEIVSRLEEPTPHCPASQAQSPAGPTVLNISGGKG
Put plainly: Inhibition of bovine adrenal dopamine beta-hydroxylase assessed as norepinephrine formation per mg of protein at 0.1 mM after 45 mins.

Data set [2] has as its target T1, Dopamine beta-hydroxylase (Bos taurus). Put plainly: Inhibition of bovine adrenal dopamine beta-hydroxylase assessed as norepinephrine formation per mg of protein at 0.2 mM after 45 mins.
In data set [3] the test system is Rattus norvegicus. Kind of data set: Inhibition of dopamine beta-hydroxylase in Sprague-Dawley rat assessed as decrease in brain norepinephrine level at 50 mg/kg, ip after 1 hr by liquid chromatography (RVb=0.222+/-0.069). The class given is functional. The conditions noted are these: route intraperitoneal.
The test system of data set [4] is Rattus norvegicus. Put plainly: Inhibition of dopamine beta-hydroxylase in Sprague-Dawley rat assessed as decrease in brain norepinephrine level at 50 mg/kg, ip after 2.5 hrs by liquid chromatography (RVb=0.216+/-0.025). The class given is functional. To be noted: route intraperitoneal.
In data set [5] the test system is Rattus norvegicus. Put plainly: Inhibition of dopamine beta-hydroxylase in Sprague-Dawley rat assessed as decrease in brain norepinephrine level at 50 mg/kg, ip after 6 hrs by liquid chromatography (RVb=0.206+/-0.022). The format is functional. The conditions noted are these: route intraperitoneal.
In data set [6] the target is T1, Dopamine beta-hydroxylase (Bos taurus). Kind of data set: Inhibition of bovine adrenal dopamine beta-hydroxylase at 0.2 mM.
Data set [7] has the same target. Put plainly: Inhibition of bovine adrenal dopamine beta-hydroxylase at 0.1 mM.
Data set [8] deals with Rattus norvegicus. Put plainly: Inhibition of dopamine beta-hydroxylase in Sprague-Dawley rat assessed as increase in cardiac dopamine level at 50 mg/kg, ip after 4 hrs by liquid chromatography (RVb=0.023+/-0.005). The class given is functional. The conditions noted are these: route intraperitoneal.
Data set [9] deals with Rattus norvegicus. Kind of data set: Inhibition of dopamine beta-hydroxylase in Sprague-Dawley rat assessed as increase in adrenal dopamine level at 50 mg/kg, ip after 4 hrs by liquid chromatography (RVb=5.9+/-1.0). The class given is functional. To be noted: route intraperitoneal.
The nature of data set [10]: Drug level in Sprague-Dawley rat heart at 50 mg/kg, ip after 4 hrs. The class given is ADME, organism-based. More on the design: dose 50 mg/kg, route intraperitoneal. To be noted: read-out: Drug uptake.
Data set [11] is described as follows: Drug level in Sprague-Dawley rat brain at 50 mg/kg, ip after 4 hrs. The format is ADME, organism-based. More on the design: dose 50 mg/kg, route intraperitoneal. To be noted: read-out: Drug uptake.

As to `C=C[C@@H]1CNC(=S)O1`, the Activity in [1] was 62 nmol.
For `Cn1ccnc1S` [METHIMAZOLE], the Activity came out at 53 nmol in data set [2], 0.216 µg/g in data set [3], 0.143 µg/g in data set [4] and 0.076 µg/g in [5].
`C=CC1CNC(=S)O1` (stereo unspecified): the Activity turned out to be 49 nmol in data set [2]; 77 nmol in data set [1]; 0.249 µg/g in [3]; 0.158 µg/g in data set [4]; 0.092 µg/g in data set [5]; 0.071 µg/g in data set [8]. Besides, the Activity in [9] is 10 µg/g. The inhibition in [6] is 78%; in data set [7], 55%. The concentration at 4 h was 22300 ng/g in data set [10] and 21000 ng/g in [11].

As usually defined, the inhibition is the drop in the measured response relative to a control, in per cent.

The values are drawn from ChEMBL document CHEMBL1151107, “Inhibition of dopamine beta-hydroxylase by goitrin, a natural antithyroid compound” (J Nat Prod, 1988).
